According to patent US8580321B2, “Method for reducing the effects of chemotherapy using flagellin related polypeptides” (priority 2003, dated 2013):

Experiments:
[1] = system: mice treated with total body gamma radiation; experiment: Mouse survival after total body gamma irradiation (radioprotection); type: in vivo; conditions: for 30-day survival, 11 Gy / 30-day survival, 14 Gy: s.c. 5.0 μg/mouse (0.2 mg/kg); for 30-day survival, 11 Gy: 1 hour before 11 Gy; for 30-day survival, 14 Gy: 1 hour before 14 Gy
Experimental: Whole body irradiation of mice with 15 Gy gamma radiation caused death within 8 days from GI syndrome providing a conventional model of radiation induced damage of GI tract. To test whether flagellin was capable of protecting GI epithelium from IR, we tested the effect of i.v.-injected flagellin on the dynamics of mouse lethality after 15 Gy of radiation. […] Irradiation was done 4 hours post treatment. As expected, control irradiated mice (that received PBS i.v.) died between 5 and 8 days post-treatment. […] Intravenous, intraperitoneal and subcutaneous delivery of 0.2 mg/kg of flagellin followed by 13 Gy irradiation afforded similar degree of protection, leading to 85-90% 30-day survival of mice (data not shown). While not being bound by theory, flagellin may be a radioprotectant due to its activation of NF-κB, which presumably acts as an inhibitor of apoptotic death.
The experiments were done similarly to the above-described ones (FIGS. 14 and 15), however, instead of 15Gy, mice received 10Gy, the dose that caused 100% killing in control group by day 13 (FIG. 6).
In order to further estimate the dependence of radioprotective activity of flagellin on the time of treatment, mice were injected at several time points relative to the moment of gamma-irradiation. Experiments were performed essentially as explained above, using intraperitoneal injection of 5 μg/mouse (0.2 mg/kg) of full-length flagellin or, for control mice, 5 μg/mouse (0.2 mg/kg) of bacterial RNA polymerase. The experiments were performed using the NIH-Swiss mouse strain. […] Only −1 h graph is shown for clarity, however, both timepoints (−1 and −2 h) provide similar degree and dynamics of survival.
We next obtained an estimate of radiation dose-dependent protection for flagellin. As shown above (FIG. 7), treatment with flagellin was sufficient for 100% protection against 10 Gy gamma-irradiation (this dose causes death from hematopoietic syndrome) and 90% 30-day survival at 13 Gy (both hematopoietic and GI syndromes). Experiments were performed as described above, using flagellin 5 μg/mouse (0.2 mg/kg), intraperitoneally injected 1 h before irradiation.
As shown above, full-length flagellin provides protection from both hematopoietic and gastrointestinal syndromes. The radioprotective potential of flagellin fragments was similarly tested after gamma-irradiation with 11 Gy (dose that induces hematopoietic syndrome-associated mortality in mice) or 14 Gy (dose that causes death from GI syndrome). Mice (10 animals per group) were injected subcutaneously with 5.0 μg/mouse (0.2 mg/kg) of flagellin or its fragments, AA′ or BB′, and gamma-irradiated 1 hour later.
In order to explore the limits of radioprotection provided by the AA′ fragment, we irradiated mice with 17 Gy and 20 Gy single doses of total body gamma-radiation.
(§1) We tested the ability of AA′ to protect mice that were exposed to it. A group of 20 NIH-Swiss mice were subcutaneously injected with 5 μg/mouse (0.2 mg/kg) of AA′. A second injection of a equal dose of AA′ was administered after 21 (10 mice) and 28 days (another 10 mice), with the time elapsed being sufficient for formation of antibodies. The second injection of AA′ was followed by 13 Gy of whole-body gamma irradiation (1 h post-injection).
Repetitive irradiation within a short period of time may be common, for example, in space radiation events and in clinical radiotherapy regimens. We tested the ability of the AA′ flagellin fragment to protect mice from sub-lethal (4 treatments of 3 Gy) and 100% lethal (4 treatments of 4 Gy) regimens of fractionated gamma-irradiation. Fragment AA′ or saline buffer was given to NIH-Swiss female mice before every irradiation (once a day for 4 days). AA′ was administered as described above for single-dose irradiation (5 μg/mouse, given subcutaneously 1 h before irradiation). […]
We have extensively confirmed that AA′ protects NIH-Swiss and ICR mice from radiation. […]

[2] = system: small intestinal epithelium of irradiated mice; experiment: Pathomorphological analysis of small intestine and skin after gamma irradiation; type: in vivo, mouse; conditions: for intestinal morphology 5 days after 14 Gy: pretreated mice, villi/crypt structure; for radiation-induced disappearance of sebaceous glands: skin, 5 days after 14 Gy
Experimental: Tissue samples of intestinal mucosa were taken 5 days after 14 Gy irradiation from mice pretreated with flagellin and control mice. Control animals were treated with 5.0 μg/mouse (0.2 mg/kg) bacterial RNA-polymerase. […] Tissue samples (small intestine and skin from the back) were also obtained from mice treated with the AA′ fragment. The results shown in FIG. 17 are areas of typical morphology observed over a set of at least 3 mice.
Flagellin (and CBLB502) may induce NF-κB activity via binding to TLR5. Accordingly, CBLB502-mediated radioprotection may be dependent on the presence and activity of TLR5. MOLF/Ei mice are a known natural model of TLR5 deficiency (Sebastiani G., et. al., Genomics. 2000 Mar. 15; 64(3):230-40). To verify that CBLB502-mediated radioprotection is indeed TLR5-dependent, we tested the protection of small intestine from radiation by CBLB502 in MOLF/Ei and NIH-Swiss mice (FIG. 35). Both strains of mice were given 0.2 mg/kg CBLB502 (AA′) or PBS 0.5 hr before 15 Gy of gamma-irradiation. The samples of small intestine were obtained 4 days after irradiation, stained by hematoxylin-eosin and subjected to pathomorphological analysis.

NIH-Swiss mice = type: in vivo, mouse; conditions: repeated administration
From the text: Overall immunogenicity of a protein may determines its suitability for repeated use. Antibodies generated by immune system are capable of reducing the therapeutic activity of the protein and also may induce anaphylactic reaction upon second exposure if IgE antibodies are produced against the protein. Thus, any reduction in the amount and variety of antibodies compared to full-length flagellin is an improvement. Accordingly, after repeated introduction of flagellin or its fragments we monitored; a) efficiency of radioprotection afforded at second exposure; b) local and general allergic reactions; and c) antibody titer.
as §1

NF-κB = experiment: EMSA of NF-κB translocation / DNA binding in A549 cells; conditions: for inducing NF-κB translocation: nuclear extracts of treated A549 lung cancer cells
[3] = 0.2 mg/kg 0.5 hr before 15 Gy, samples 4 days after irradiation
[4] = 5 μg/mouse (0.2 mg/kg) i.p. 1 h before 15 Gy
[5] = 5 μg/mouse i.p. 1 h before irradiation, estimate

With “AA′: flagellin fragment (1-177)-Linker-(402-505), SEQ ID NO: 8” as the substance, how does the “protection against fractionated gamma-irradiation” value ([1]; 5 μg/mouse s.c. 1 h before every irradiation, 4 treatments of 3 Gy or 4 Gy, NIH-Swiss female mice) read?
Its value is “significant protection”.

What about the “survival at day 10, Balb/c mice” value ([1]; 0.2 mg/kg 30 minutes before 10 Gy, vehicle 0%) of the same substance?
Its value is 100%.

And the “time of mortality at 17 Gy” value ([1]; 17 Gy, control mice 6-7 day mortality)?
The value was 10 to 15 days.

And the “delay of death after supralethal irradiation” value ([1]; 17 and 20 Gy, versus inactive fragment control)?
Its value is “significantly delayed”.

And the “survival at day 30, all tested strains” value ([1]; 129/Sv, DBA/2, Balb/c, CD2F1, 0.2 mg/kg 30 minutes before 10 Gy, vehicle 0-25%)?
The value was 50-100%.

What about the “effect of NS398 on radioprotection” value ([1]; LPS 2 mg/kg or AA′ 0.2 mg/kg s.c. 1 hr before 13 Gy, with NS398 1 mg/kg i.p., NIH-Swiss) of the same substance?
Its value is “not”.

And the “30-day survival, 11 Gy” value [1]?
Its value is 100%.

And the “30-day survival, 14 Gy” value [1]?
The value was 100%.

And the “30-day survival after second exposure to AA′” value ([1]; second s.c. injection 0.2 mg/kg after 21 or 28 days, 13 Gy 1 h post-injection, NIH-Swiss)?
The value was 100%.

And the “mortality at 17 Gy” value ([1]; single dose 17 Gy total body)?
The value was 100%.

What about the “mortality at 20 Gy” value ([1]; single dose 20 Gy total body) of the same substance?
The value was 100%.

What about the “intestinal morphology after 15 Gy, NIH-Swiss (TLR5 wild type) mice” value [2, 3] of the same substance?
Its value is “preservation of intestinal morphology”.

What about the “intestinal morphology after 15 Gy, TLR5-deficient MOLF/Ei mice” value [2, 3] of the same substance?
The value was “no improving effect”.

What about the “intestinal morphology 5 days after 14 Gy” value [2] of the same substance?
The value was “near-normal intestinal morphology”.

And the “radiation-induced disappearance of sebaceous glands” value [2]?
Its value is “prevented”.

And the “local allergic reaction or anaphylaxis” value (NIH-Swiss mice)?
The value was “no local allergic reaction or anaphylaxis”.

What about the “NF-κB Stimulation” value (NF-κB; A549 cells, 1 μg/ml, 45 min, EMSA of whole cell extracts) of the same substance?
Its value is “Yes”.

And the “level of NF-κB translocation, fragments versus flagellin” value (NF-κB; EMSA, A549 cells)?
Its value is “comparable”.

And the “inducing NF-κB translocation” value (NF-κB; EMSA)?
Its value is “capable of inducing NF-κB translocation”.

Which results are given for “flagellin: Salmonella dublin FliC flagellin, 505 amino acids, SEQ ID NO: 1; recombinant full-length protein”?
7-day survival at 15 Gy [1, 4]: 100%; 30-day survival at 15 Gy [1, 4]: 0%; DMF30 [1, 5]: 1.75-1.8; LD50/30 (radiation dose, flagellin-treated mice) [1, 5]: 13.5-14 Gy; protection from 10Gy (HP syndrome) ([1]; 5 μg/mouse, 10Gy): complete protection; protection against radiation by gavage delivery ([1]; 50 μg by gavage 1 h before 13 Gy): No protection; 30-day survival, parenteral routes ([1]; 0.2 mg/kg i.v., i.p., i.m. or s.c., 1 hr before 13 Gy, NIH-Swiss): 85-90%; 30-day survival of mice ([1]; 0.2 mg/kg intravenous, intraperitoneal or subcutaneous, followed by 13 Gy): 85-90%; protection against 10 Gy gamma-irradiation ([1]; 10 Gy (hematopoietic syndrome)): 100%; 30-day survival at 13 Gy ([1]; 13 Gy): 90%; protection from 10 Gy ([1]; administered 24 hours before 10 Gy): 100%; survival after 13 Gy irradiation ([1]; i.p. 5 μg/mouse (0.2 mg/kg), injected 1 or 2 hours before, NIH-Swiss mice): ~90%; protection, 4 h timepoint ([1]; i.p. 5 μg/mouse, injected 4 h before 13 Gy, NIH-Swiss): somewhat lower protection; protective effect against 13 Gy induced death ([1]; i.p. 5 μg/mouse, injected 24 hours before 13 Gy): no protective effect; survival after 15 Gy ([1]; i.v., irradiation 4 hours post treatment, 15 Gy, PBS controls died between 5 and 8 days): lived significantly longer; radioprotectant effect from 13Gy ([1]; injected 1-4 h before 13Gy): effective as a radioprotectant; approximate DMF (30-day survival) ([1]; mouse, in vivo): greater than 1.5; 30-day survival, 11 Gy [1]: 100%; 30-day survival, 14 Gy [1]: 100%; morphology of small intestinal epithelium after 15 Gy ([2]; i.v. 0.25 mg/kg, 15 Gy, HE stained sections): close to normal morphology; intestinal morphology 5 days after 14 Gy [2]: near-normal intestinal morphology; radiation-induced disappearance of sebaceous glands [2]: prevented; local allergic reaction or anaphylaxis (NIH-Swiss mice): no local allergic reaction or anaphylaxis; inducing NF-κB translocation (NF-κB; EMSA): capable of inducing NF-κB translocation
